From US6740657B2, “Aminomethyl-pyrroloquinazoline compounds as thrombin receptor antagonists” (Ortho-McNeil Pharmaceutical, Inc., priority 2001, dated 2004)
Where two headings read alike, the source gives them in different places.

Assays:
[1] = test system: platelet aggregation stimulated by thrombin (gel-filtered platelets); assay: In vitro inhibition of thrombin-induced gel-filtered platelet aggregation; format: cell-based, Human; settings: agonist thrombin; for IC50: read-out: GFP Aggr. IC50 (μM), Thr; for inhibition at 50 µM: Homo sapiens, Platelet, read-out: GFP Aggr. % Inhibition, Thr
Experimental: (§1) In Vitro Inhibition of Thrombin-Induced Gel-Filtered Platelet Aggregation Assay
(§2) The percentage of platelet aggregation is calculated as an increase in light transmission of compound-treated platelet concentrate vs. control-treated platelet concentrate. Human blood is obtained from drug free, normal donors in tubes containing 0.13 M sodium citrate. Platelet rich plasma (PRP) is collected by centrifugation of whole blood at 200×g for 10 min at 25° C. The PRP (5 mL) is gel filtered through Sepharose 2B (bed volume 50 mL), and the platelet count is adjusted to 2×10^7 platelets per sample. The following constituents are added to a siliconized cuvette: concentrated platelet filtrate and Tyrode's buffer (0.14 M NaCl, 0.0027 M KCl, 0.012 M NaHCO3, 0.76 mM Na2HPO4, 0.0055 M glucose, 2 mg/mL BSA and 5.0 mM HEPES@pH 7.4) in an amount equal to 350 μL, 50 μL of 20 mM calcium and 50 μL of the test compound. Aggregation is monitored in a BIODATA aggregometer for the 3 min following the addition of agonist (thrombin 50 μL of 1 unit/mL).
(§3) Table 5 contains IC50 values (μM) or % inhibition@50 μM of the compounds against platelet aggregation stimulated (GFP Aggr.) by thrombin or TRAP-6 (Thr or TRAP-6) and IC50 values (μM) in a thrombin receptor (PAR-1) binding assay (Binding). The compounds of Table 5 correspond to those shown on Table 4.

[2] = test system: platelet aggregation stimulated by TRAP-6 (gel-filtered platelets); assay: In vitro inhibition of TRAP-6-induced gel-filtered platelet aggregation; format: cell-based, Human; settings: for IC50: agonist TRAP-6, read-out: GFP Aggr. IC50 (μM), TRAP-6; for inhibition at 50 µM: read-out: GFP Aggr. % Inhibition, TRAP-6
Experimental: as §1, §2, §3

[3] = molecular target: T1, thrombin receptor (PAR-1) (Homo sapiens, UniProt P25116); assay: In vitro thrombin receptor binding assay (CHRF membranes, tritiated 721-40); settings: thrombin receptor (PAR-1) binding, read-out: Binding IC50 (μM), Thr.
T1 construct: CHRF membranes (Jones, Biochim. Biophys. Acta 1992, 1136, 272) are thawed from −70° C; endogenous in cells; the full cell line name is own knowledge
T1 sequence (P25116 22-425): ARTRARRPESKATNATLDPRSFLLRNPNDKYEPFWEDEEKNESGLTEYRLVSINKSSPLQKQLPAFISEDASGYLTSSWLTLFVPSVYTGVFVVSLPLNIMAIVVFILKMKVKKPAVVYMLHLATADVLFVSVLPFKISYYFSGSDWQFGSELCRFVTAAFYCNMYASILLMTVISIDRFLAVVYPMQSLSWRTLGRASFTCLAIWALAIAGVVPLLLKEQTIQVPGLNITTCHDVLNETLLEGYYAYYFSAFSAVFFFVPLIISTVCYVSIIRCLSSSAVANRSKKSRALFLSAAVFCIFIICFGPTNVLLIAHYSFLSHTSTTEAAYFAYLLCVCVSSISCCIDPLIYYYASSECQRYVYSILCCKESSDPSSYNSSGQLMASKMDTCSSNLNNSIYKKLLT
Experimental: In Vitro Thrombin Receptor Binding Assay
CHRF membranes (Jones, Biochim. Biophys. Acta 1992, 1136, 272) are thawed from −70° C., centrifuged at maximum speed for 5 min, washed twice with binding buffer (50 mM HEPES containing 5 mM MgCl2 and 0.1% BSA), and re-suspended in binding buffer (25 μg/[…]). 100 μL of membranes are added to the 24-Wallac plates and delivered to the Tomtech apparatus. In a typical experiment, 6 μL of samples (from a 125 μg/mL intermediary plate, 20% DMSO) and 44 μL buffer are delivered to the plates (final conc. of compounds is 3.7 μg/mL, 0.6% DMSO). Similarly, 6 μL 20% DMSO and 44 μL buffer are delivered to both column 1 (NSB) and column 12 (TB). 10 μL Ser-pFPhe-hArg-Leu-hArg-Lys-Tyr-NH2 (721-40; 500 μM in deionized water) is added to column 1.50 μL tritiated 721-40 (specific activity 46 Ci/mmol) is added to all the wells. The plates are mixed well for 20 seconds, incubated for 30 min, and then harvested with 10 mM HEPES/138 mM NaCl using the Skatron harvester. The filters (GF/C Brandel FPXLR 296) are presoaked 3 h in 0.5% polyethylenimine in HEPES/0.1M N-acetylglucosamine) are set in saran wrap and dried for 3 min in the microwave, and placed in sample bags (Wallac 1450-432). 4.5 mL scintillation fluid (Wallac, Betaplate Scint 1205-440) is added. The bags are sealed, placed in filter cassettes (Wallac 1450-104), and analyzed on the microbeta counter. […]

[4] = Homo sapiens, Platelet, agonist TRAP-6, % inhibition @ 50 μM

Question: Which results are given for CN(C)Cc1cn(Cc2c(Cl)cccc2Cl)c2ccc3nc(N[C@@H](Cc4ccccc4)C(=O)N[C@@H](CCN)C(=O)NCc4ccccc4)nc(N)c3c12 [Compound 2, α-[[1-amino-7-[(2,6-dichlorophenyl)methyl]-9-[(dimethylamino)methyl]-7H-pyrrolo[3,2-f]quinazolin-3-yl]amino]-N-[(1S)-3-amino-1-[[(phenylmethyl)amino]carbonyl]propyl]-(α^1S)-benzenepropanamide]?
Answer: IC50 [1]: 13 µM; IC50 [2]: 3 µM

Question: How did the inhibition at 50 µM ([1]; % inhibition @ 50 μM) turn out when CN(C)Cc1cn(Cc2c(Cl)cccc2Cl)c2ccc3nc(N(C)C)nc(N)c3c12 [Compound 3, 7-[(2,6-dichlorophenyl)methyl]-9-[(dimethylamino)methyl]-N^3,N^3-dimethyl-7H-pyrrolo[3,2-f]quinazoline-1,3-diamine] was run?
Answer: 27%

Question: What about the inhibition at 50 µM [2, 4] of the same molecule?
Answer: 40%

Question: Which results are given for CN(C)Cc1cn(Cc2c(Cl)cccc2Cl)c2ccc3nc(NC4CC4)ncc3c12 [Compound 4, 3-(cyclopropylamino)-7-[(2,6-dichlorophenyl)methyl]-N,N-dimethyl-7H-pyrrolo[3,2-f]quinazoline-9-methanamine]?
Answer: inhibition at 50 µM ([1]; % inhibition @ 50 μM): 30%; inhibition at 50 µM [2, 4]: 20%

Question: With Nc1nc(Cl)nc2ccc3c(c(CN4CCCC4)cn3Cc3c(Cl)cccc3Cl)c12 [Compound 5, 3-chloro-7-[(2,6-dichlorophenyl)methyl]-9-(1-pyrrolidinylmethyl)-7H-pyrrolo[3,2-f]quinazolin-1-amine] as the molecule, how does the “GFP Aggr. % Inhibition, Thr” value ([1]; % inhibition @ 50 μM) read?
Answer: 16%

Question: And the “GFP Aggr. % Inhibition, TRAP-6” value ([2]; agonist TRAP-6, % inhibition @ 50 μM)?
Answer: 32%

Question: For COc1nc(Cl)nc2ccc3c(c(CN(C)C)cn3Cc3c(Cl)cccc3Cl)c12 [Compound 6, 3-chloro-7-[(2,6-dichlorophenyl)methyl]-1-methoxy-N,N-dimethyl-7H-pyrrolo[3,2-f]quinazoline-9-methanamine], which inhibition at 50 µM ([1]; % inhibition @ 50 μM) is on record?
Answer: 40%

Question: What about the IC50 ([2]; Homo sapiens, Platelet) of the same molecule?
Answer: 31 µM

Question: Which results are given for CN(C)Cc1cn(Cc2c(Cl)cccc2Cl)c2ccc3nc(Cl)nc(N)c3c12 [Compound 7, 1-amino-3-chloro-7-[(2,6-dichlorophenyl)methyl]-N,N-dimethyl-7H-pyrrolo[3,2-f]quinazoline-9-methanamine]?
Answer: inhibition at 50 µM ([1]; % inhibition @ 50 μM): 14%; inhibition at 50 µM [2, 4]: 3%

Question: Which IC50 [3] does the source give for “N^3-cyclopropyl-7-[(2,6-dichlorophenyl)methyl]-9-[(dimethylamino)methyl]-7H-pyrrolo[3,2-f]quinazoline-1,3-diamine [Compound 1]” here?
Answer: 9.6 µM

Question: What about the IC50 [1] of the same molecule?
Answer: 21 µM

Question: What about the IC50 [2] of the same molecule?
Answer: 13 µM
